Structures can show the parent of a compound that is named as a salt.

For `Cc1ccc2ccc(CCN3CC=C(c4cccc(C(F)(F)F)c4)CC3)cc2n1` (as salt: hydrochloride), the melting point came to 221 °C.
Turning to `CCc1cc2ccc(CCN3CC=C(c4cccc(C(F)(F)F)c4)CC3)cc2cn1` (as salt: hydrochloride), the melting point was 230 °C.

These data come from patent US6509351B1, “Phenyl- and pyridyl-tetrahydro-pyridines having TNF inhibiting activity” (Sanofi-Syntelabo, priority 1999, dated 2003).
